PMC9436958, “The synthesis of novel thioderivative chalcones and their influence on NF-κB, STAT3 and NRF2 signaling pathways in colorectal cancer cells” (Scientific Reports, 2022)

Legend:
EGFR [1] = test system: EGFR; parameters: method as in BinidngDB; details: inhibitor of PDB ID 5UGB; ref BinidngDB; cited from earlier work
DLD-1 cells = test: MTT viability assay, DLD-1 cells; type: cell-based; details: Homo sapiens, range 0.5–100 µM, read-out: IC50, cytotoxicity
Description: (§1) The DLD-1 and HCT116 colorectal carcinoma cell lines were purchased from ECACC. The HaCaT cell line of spontaneously immortalized keratinocytes was purchased from Cell Lines Service (Germany). The cells were cultured in Dulbecco’s Modified Eagle’s Medium (DMEM, Sigma-Aldrich, USA) with the addition of 10% FBS (EURx, Poland) and 1% antibiotic solution (penicillin and streptomycin) (Sigma-Aldrich, USA) at 37 °C in an atmosphere with 95% humidity and 5% CO2.
(§2) The effect of the tested compounds on the viability of DLD-1, HCT116 and HaCaT cells was assessed by the MTT assay according to the standard protocol.

HCT116 cells = test: MTT viability assay, HCT116 cells; type: cell-based; details: Homo sapiens, HCT-116, range 0.5–100 µM, read-out: IC50, cytotoxicity
Description: as §1, §2

[2] = MTT viability assay, normal HaCaT cells; type: cell-based; details: HaCaT cells (spontaneously immortalized keratinocytes), normal human HaCaT cells, read-out: IC50, cytotoxicity
Description: as §1, §2

NF-κB p65 [3] = test: Transcription factor ELISA, NF-κB p65 binding to DNA; type: cell-based; details: DLD-1 cells (context); 1, 4 at 1 μM; 2, 8 at 5 μM; vs control
Description: (§3) To estimate NF-ΚB (p50 and p65 subunits) STAT3 and Nrf2 activation, enzymatic immunoassays with the Transcription Factor ELISA Kit (TransAM™NF-κB, TransAM™STAT3/TransAM™Nrf2, Active Motif, Carlsbad CA, USA) were used following the manufacturer’s protocol. Briefly, proper consensus-site double-strand oligonucleotides (NF-κB—5′-GGGACTTTCC-3′; STAT3-5’—TTCCCGGAA-3’; Nrf2-5ʹ—[…]-3ʹ) were immobilized on an ELISA plate and incubated for one hour with the nuclear extracts. The activated subunits bound to DNA were recognized with a specific primary antibody and detected with an HRP-conjugated secondary antibody. The number of subunits was determined by spectrophotometry at λ = 450 nm. The number of p50, and p65 subunits, STAT3, as well as the amount of Nrf2 contained in the DNA-binding complex, corresponded to the activated NF-κB, STAT3, or Nrf2 transcription factors.

NF-κB p65 [4] = test: qRT-PCR, NF-κB p65 mRNA; type: cell-based; details: for inhibitory effect on p65 subunit transcription: DLD-1 cells, 5 μM
Description: (§4) Total RNA from cells was isolated with the GeneMatrix Universal DNA/RNA/Protein Purification Kit (EurX, Poland). For the qRT-PCR analyses, the Maxima SYBR Green I/ROX qPCR Master Mix (2×) (Thermo Fisher Scientific, USA) and the thermal cycler LightCycler (Roche, Germany) were used. The protocol started with 5 min of enzyme activation at 95 °C, followed by 40–50 cycles at 95 °C for 15 s, 56 °C for 20 s, 72 °C for 40 s, and final elongation at 72 °C for 5 min. Melting curve analysis was used for amplicon verification. The expression levels of TATA-box-binding protein (TBP) and porphobilinogen deaminase (PBGD) were used to normalize the data. The Pfaffl comparative method was used to calculate fold change. Primers were designed using Beacon Designer software (the sequences of primers used to analyze genes are listed in Table 2 of the supplementary materials).

Nrf2 = test: Transcription factor ELISA, Nrf2 binding to DNA; type: cell-based
Description: as §3

NF-κB p50 = test: Transcription factor ELISA, NF-κB p50 binding to DNA; type: cell-based; details: DLD-1 cells; 1, 4 at 1 μM; 2, 3, 5-8 at 5 μM; in relation to the control group
Description: as §3

p-Nrf2 = test: Western blot, p-Nrf2 protein in nuclear fraction; type: cell-based; details: HCT116 line; 5 μM
Description: (§5) Cytosolic and nuclear extracts were prepared using a Nuclear/Cytosol Fractionation Kit (BioVision Research, USA). Cytosolic extracts (for NF-κBp65, NF-κBp50, COX-2, iNOS, STAT3, c-Myc, Bcl-xl, Nrf2, SOD, GSTP, EGFR, Akt, p-Akt, Keap1, IKKα/β and β-actin) or nuclear extracts (for NF-κBp65, NF-κBp50, STAT3, p-STAT3, Nrf2, p-Nrf2 and lamin) were separated on 7.5%, 10% or 12% SDS–PAGE slab gels. Then, the proteins were transferred to a nitrocellulose Immobilon-P membrane. After blocking for 2 h with 10% skimmed milk, proteins were incubated with primary antibodies against NF-κBp65, NF-κBp50, COX-2, iNOS, STAT3, p-STAT3, c-Myc, Bcl-xl, Nrf2, p-Nrf2, SOD, GSTP, EGFR, Akt, p-Akt, Keap1, IKKα/β, β-actin, and lamin. Alkaline phosphatase (AP)-labeled anti-rabbit IgG, anti-goat IgG, and anti-mouse IgG secondary antibodies (Bio-Rad Laboratories, USA), as well as horseradish peroxidase (HRP)-conjugated anti-mouse IgG (Boster Bio, USA) secondary antibodies were used in the staining reaction. Bands were visualized by the AP Conjugate Substrate Kit NBT/BCIP or the chemiluminescent HRP substrate of the Clarity ECL Kit (Bio–Rad Laboratories, USA). The amount of immunoreactive product in each lane was determined using a ChemiDoc Imaging System (Bio–Rad Laboratories, USA). Values were calculated as relative absorbance units (RQ) per mg of protein and expressed as a percentage of the control.

SOD = SOD expression (qRT-PCR mRNA, Western blot protein); type: cell-based; details: HCT116 cells; 5 μM
Description: as §5
as §4, with “Primers were designed using Beacon Designer software (the sequences of primers used to analyze genes are listed in Table 2 of the supplementary materials).” left out

AKT = test system: AKT; parameters: method as in BinidngDB; details: inhibitor of PDB ID 4GV1; ref BinidngDB; cited from earlier work
COX-2 = COX-2 expression (qRT-PCR mRNA, Western blot protein); type: cell-based; details: 4 at 1 μM; for COX-2 transcription: DLD-1 cells, 3, 6 at 5 μM
Description: as §5, §4

STAT3 [5] = test: Western blot, STAT3 protein level; type: cell-based; details: DLD-1 cells; 2 at 5 μM, 4 at 1 μM
Description: as §5

STAT3 [6] = test: Transcription factor ELISA, STAT3 binding to DNA; type: cell-based; details: 2, 5 at 5 μM, 4 at 1 μM
Description: as §3

STAT3 [7] = test: qRT-PCR, STAT3 mRNA; type: cell-based; details: DLD-1 cells; 2, 5 at 5 μM, 4 at 1 μM
Description: as §4

Bcl-xl = Bcl-xl expression (qRT-PCR mRNA, Western blot protein); type: cell-based; details: DLD-1 cells; 2 at 5 μM
Description: as §5, §4

c-Myc = c-Myc expression (qRT-PCR mRNA, Western blot protein); type: cell-based; details: DLD-1 cells; 2 at 5 μM
Description: as §5, with “control. […]” for “control.”

EGFR [8] = test: Western blot, EGFR protein in cytosolic fraction; type: cell-based; details: DLD-1 cells; 2, 5 at 5 μM, 4 at 1 μM
Description: as §5

p-Akt = test: Western blot, p-Akt (Ser 473) protein in cytosolic fraction; type: cell-based; details: 2, 5 at 5 μM, 4 at 1 μM
Description: as §5

[9] = DLD-1 cells, 1 at 1 μM, 3, 5, 7, 8 at 5 μM
[10] = HCT116 cells, 4 at 1 μM, 2, 5, 6, 7 at 5 μM

Row | Nrf2 binding to a specific nucleotide sequence (ELISA) (Nrf2; [9]) | Nrf2 binding to a specific nucleotide sequence (ELISA) (Nrf2; [10]) | SMILES | IC50 (DLD-1 cells) [µM] | IC50 (HCT116 cells) [µM] | IC50 [2] [µM] | reduction of the binding of the p65 subunit to DNA (NF-κB p65 [3]) [%] | other results
2 | statistically significant increase | – | COc1ccc(/C=C/C(=O)c2cc(OC)c(SC)c(OC)c2)cc1SC [chalcone 8] | 9 | 19 | 17 | 38 | decrease of p65 transcription (NF-κB p65 [4]; HCT116 cells, 8 at 5 μM, compared to the control group): 30%
3 | statistically significant increase | statistically significant increase | COc1cc(C(=O)/C=C/c2ccc(SC)cc2)cc(Br)c1SC [chalcone 7] | 43 | 19 | 27 | – | decrease of p50 binding to the 5'-GGGACTTTCC-3' target sequence (NF-κB p50): 41%; inhibitory effect on p65 subunit transcription (NF-κB p65 [4]): most potent inhibitory effect; increase in the nuclear level of p-Nrf2 (p-Nrf2): 80%; levels of SOD mRNA and protein (SOD): increased levels of SOD mRNA and protein
4 | – | – | NC1(C(=O)N[C@@H](CCO)c2ccc(Cl)cc2)CCN(c2ncnc3[nH]ccc23)CC1 [AZD5363] | – | – | – | – | IC50 (AKT): 0.0042 µM
5 | statistically significant increase | – | COc1ccc(/C=C/C(=O)c2cc(Br)c(OC)c(OC)c2)cc1SC [chalcone 3] | 8 | 17 | 9 | – | COX-2 transcription (COX-2): statistically significant reduction
6 | – | statistically significant increase | COc1cc(/C=C/C(=O)c2cc(Br)c(OC)c(OC)c2)ccc1SC [chalcone 2] | 11 | 18 | 13 | 24 | inhibitory effect on p65 subunit transcription (NF-κB p65 [4]): most potent inhibitory effect; COX-2 expression, protein level (COX-2; HCT116 cells, 2 at 5 μM): reduction of COX-2 expression; COX-2 expression, transcript level (COX-2; HCT116 cells, 2 at 5 μM): reduction of COX-2 expression; decrease in the nuclear level of STAT3 protein (STAT3 [5]): 22%; binding of STAT3 to DNA (STAT3 [6]; HCT116 cells): decreased the binding of STAT3 to DNA; decrease in the binding of STAT3 to DNA (STAT3 [6]; nuclear fraction of DLD-1 cells): 25%; STAT3 gene expression (mRNA) (STAT3 [7]): decreased; Bcl-xl protein level (Bcl-xl): reduced level of the Bcl-xl protein; decrease in the level of Bcl-xl mRNA (Bcl-xl): 25%; c-Myc expression (c-Myc): decreased c-Myc expression; level of EGFR (EGFR [8]): significantly decreased the level of EGFR; phosphorylation of p-Akt (Ser 473) (p-Akt; DLD-1 cells): significantly reduced phosphorylation of p-Akt; phosphorylation of p-Akt (Ser 473) (p-Akt; HCT116 cells): significantly reduced phosphorylation of p-Akt
7 | statistically significant increase | – | COc1ccc(/C=C/C(=O)c2cc(OC)c(OC)c(OC)c2)cc1SC [chalcone 1] | 3 | 19 | 4 | 21 | –
8 | – | statistically significant increase | COc1ccc(/C=C/C(=O)c2cc(Br)c(SC)c(OC)c2)cc1SC [chalcone 6] | 12 | 21 | 13 | – | COX-2 transcription (COX-2): statistically significant reduction; increase in the nuclear level of p-Nrf2 (p-Nrf2): 52%; levels of SOD mRNA and protein (SOD): increased levels of SOD mRNA and protein
